Results from the NIST ThermoML archive (doi:10.1021/je700287u).
Numbers after ± are expanded uncertainties.

Assay: xn = mol fraction of the nth substance listed
Conditions: Liquid

## CN(CCO)CCO [N-methyldiethanolamine] + O
323.09 K, 3015 kPa, x1 = 0.1302
  mass density: 1027.4 ± 0.4 kg/m3
323.09 K, 3997 kPa, x1 = 0.0369
  mass density: 1002.4 ± 0.4 kg/m3
323.09 K, 4003 kPa, x1 = 0.1302
  mass density: 1027.8 ± 0.4 kg/m3
323.09 K, 4998 kPa, x1 = 0.0369
  mass density: 1002.7 ± 0.4 kg/m3
323.09 K, 4999 kPa, x1 = 0.1302
  mass density: 1028.1 ± 0.4 kg/m3
323.09 K, 5998 kPa, x1 = 0.1302
  mass density: 1028.5 ± 0.4 kg/m3
323.09 K, 6003 kPa, x1 = 0.0369
  mass density: 1003.1 ± 0.4 kg/m3
323.09 K, 6993 kPa, x1 = 0.0369
  mass density: 1003.5 ± 0.4 kg/m3
323.09 K, 6998 kPa, x1 = 0.1302
  mass density: 1028.9 ± 0.4 kg/m3
323.09 K, 7994 kPa, x1 = 0.0369
  mass density: 1004 ± 0.4 kg/m3
323.09 K, 7999 kPa, x1 = 0.1302
  mass density: 1029.3 ± 0.5 kg/m3
323.09 K, 8996 kPa, x1 = 0.0369
  mass density: 1004.4 ± 0.4 kg/m3
323.09 K, 8998 kPa, x1 = 0.1302
  mass density: 1029.7 ± 0.5 kg/m3
323.09 K, 9995 kPa, x1 = 0.1302
  mass density: 1030.1 ± 0.5 kg/m3
323.09 K, 9997 kPa, x1 = 0.0369
  mass density: 1004.8 ± 0.4 kg/m3
323.09 K, 10986 kPa, x1 = 0.0369
  mass density: 1005.2 ± 0.4 kg/m3
323.09 K, 10997 kPa, x1 = 0.1302
  mass density: 1030.4 ± 0.5 kg/m3
323.09 K, 11988 kPa, x1 = 0.0369
  mass density: 1005.6 ± 0.4 kg/m3
323.09 K, 11998 kPa, x1 = 0.1302
  mass density: 1030.8 ± 0.5 kg/m3
323.09 K, 12997 kPa, x1 = 0.0369
  mass density: 1006 ± 0.4 kg/m3
323.09 K, 13005 kPa, x1 = 0.1302
  mass density: 1031.2 ± 0.5 kg/m3
323.09 K, 13999 kPa, x1 = 0.0369
  mass density: 1006.4 ± 0.4 kg/m3
323.09 K, 14003 kPa, x1 = 0.1302
  mass density: 1031.6 ± 0.5 kg/m3
323.09 K, 14989 kPa, x1 = 0.0369
  mass density: 1006.8 ± 0.4 kg/m3
323.09 K, 14990 kPa, x1 = 0.1302
  mass density: 1032 ± 0.5 kg/m3
323.09 K, 15996 kPa, x1 = 0.1302
  mass density: 1032.3 ± 0.5 kg/m3
323.09 K, 16002 kPa, x1 = 0.0369
  mass density: 1007.1 ± 0.4 kg/m3
323.09 K, 16988 kPa, x1 = 0.0369
  mass density: 1007.6 ± 0.4 kg/m3
323.09 K, 16999 kPa, x1 = 0.1302
  mass density: 1032.7 ± 0.5 kg/m3
323.09 K, 17990 kPa, x1 = 0.0369
  mass density: 1007.9 ± 0.4 kg/m3
323.09 K, 17996 kPa, x1 = 0.1302
  mass density: 1033.1 ± 0.5 kg/m3
323.09 K, 18988 kPa, x1 = 0.1302
  mass density: 1033.4 ± 0.5 kg/m3
323.09 K, 18996 kPa, x1 = 0.0369
  mass density: 1008.3 ± 0.4 kg/m3
323.09 K, 19995 kPa, x1 = 0.0369
  mass density: 1008.7 ± 0.4 kg/m3
323.09 K, 20004 kPa, x1 = 0.1302
  mass density: 1033.8 ± 0.5 kg/m3
323.1 K, 1009 kPa, x1 = 0.0893
  mass density: 1019.6 ± 0.4 kg/m3
323.1 K, 2006 kPa, x1 = 0.0893
  mass density: 1020 ± 0.4 kg/m3
323.1 K, 3012 kPa, x1 = 0.0893
  mass density: 1020.4 ± 0.4 kg/m3
323.1 K, 4011 kPa, x1 = 0.0893
  mass density: 1020.8 ± 0.4 kg/m3
323.1 K, 5002 kPa, x1 = 0.0893
  mass density: 1021.2 ± 0.4 kg/m3
323.1 K, 5996 kPa, x1 = 0.0893
  mass density: 1021.6 ± 0.4 kg/m3
323.1 K, 7006 kPa, x1 = 0.0893
  mass density: 1022 ± 0.4 kg/m3
323.1 K, 8004 kPa, x1 = 0.0893
  mass density: 1022.3 ± 0.4 kg/m3
323.1 K, 8991 kPa, x1 = 0.0893
  mass density: 1022.7 ± 0.4 kg/m3
323.1 K, 9999 kPa, x1 = 0.0893
  mass density: 1023.1 ± 0.4 kg/m3
323.1 K, 10993 kPa, x1 = 0.0893
  mass density: 1023.5 ± 0.4 kg/m3
323.1 K, 11992 kPa, x1 = 0.0893
  mass density: 1023.8 ± 0.4 kg/m3
323.1 K, 13001 kPa, x1 = 0.0893
  mass density: 1024.2 ± 0.5 kg/m3
323.1 K, 13990 kPa, x1 = 0.0893
  mass density: 1024.6 ± 0.5 kg/m3
323.1 K, 14980 kPa, x1 = 0.0893
  mass density: 1025 ± 0.5 kg/m3
323.1 K, 16002 kPa, x1 = 0.0893
  mass density: 1025.3 ± 0.5 kg/m3
323.1 K, 16990 kPa, x1 = 0.0893
  mass density: 1025.7 ± 0.5 kg/m3
323.1 K, 17994 kPa, x1 = 0.0893
  mass density: 1026.1 ± 0.5 kg/m3
323.1 K, 18999 kPa, x1 = 0.0893
  mass density: 1026.5 ± 0.5 kg/m3
323.1 K, 20002 kPa, x1 = 0.0893
  mass density: 1026.8 ± 0.5 kg/m3
333.03 K, 1009 kPa, x1 = 0.1302
  mass density: 1019.4 ± 0.4 kg/m3
333.03 K, 1015 kPa, x1 = 0.0607
  mass density: 1006.4 ± 0.4 kg/m3
333.03 K, 1998 kPa, x1 = 0.0607
  mass density: 1006.8 ± 0.4 kg/m3
333.03 K, 2002 kPa, x1 = 0.1302
  mass density: 1019.8 ± 0.4 kg/m3
333.03 K, 2997 kPa, x1 = 0.1302
  mass density: 1020.2 ± 0.4 kg/m3
333.03 K, 3013 kPa, x1 = 0.0607
  mass density: 1007.2 ± 0.4 kg/m3
333.03 K, 3993 kPa, x1 = 0.1302
  mass density: 1020.6 ± 0.4 kg/m3
333.03 K, 4037 kPa, x1 = 0.0607
  mass density: 1007.6 ± 0.4 kg/m3
333.03 K, 4997 kPa, x1 = 0.1302
  mass density: 1021 ± 0.4 kg/m3
333.03 K, 5116 kPa, x1 = 0.0607
  mass density: 1008.1 ± 0.4 kg/m3
333.03 K, 6002 kPa, x1 = 0.1302
  mass density: 1021.4 ± 0.4 kg/m3
333.03 K, 6004 kPa, x1 = 0.0607
  mass density: 1008.4 ± 0.4 kg/m3
333.03 K, 6992 kPa, x1 = 0.0607
  mass density: 1008.8 ± 0.4 kg/m3
333.03 K, 6992 kPa, x1 = 0.1302
  mass density: 1021.8 ± 0.4 kg/m3
333.03 K, 8003 kPa, x1 = 0.0607
  mass density: 1009.1 ± 0.4 kg/m3
333.03 K, 8013 kPa, x1 = 0.1302
  mass density: 1022.2 ± 0.4 kg/m3
333.03 K, 8975 kPa, x1 = 0.0607
  mass density: 1009.6 ± 0.4 kg/m3
333.03 K, 9016 kPa, x1 = 0.1302
  mass density: 1022.6 ± 0.4 kg/m3
333.03 K, 9983 kPa, x1 = 0.0607
  mass density: 1009.9 ± 0.4 kg/m3
333.03 K, 9993 kPa, x1 = 0.1302
  mass density: 1023 ± 0.4 kg/m3
333.03 K, 10989 kPa, x1 = 0.1302
  mass density: 1023.4 ± 0.4 kg/m3
333.03 K, 11029 kPa, x1 = 0.0607
  mass density: 1010.4 ± 0.4 kg/m3
333.03 K, 12007 kPa, x1 = 0.1302
  mass density: 1023.8 ± 0.5 kg/m3
333.03 K, 12015 kPa, x1 = 0.0607
  mass density: 1010.7 ± 0.4 kg/m3
333.03 K, 13003 kPa, x1 = 0.1302
  mass density: 1024.1 ± 0.5 kg/m3
333.03 K, 13028 kPa, x1 = 0.0607
  mass density: 1011.1 ± 0.4 kg/m3
333.03 K, 13995 kPa, x1 = 0.1302
  mass density: 1024.5 ± 0.5 kg/m3
333.03 K, 14020 kPa, x1 = 0.0607
  mass density: 1011.5 ± 0.4 kg/m3
333.03 K, 15011 kPa, x1 = 0.1302
  mass density: 1024.9 ± 0.5 kg/m3
333.03 K, 15022 kPa, x1 = 0.0607
  mass density: 1011.9 ± 0.4 kg/m3
333.03 K, 15996 kPa, x1 = 0.1302
  mass density: 1025.3 ± 0.5 kg/m3
333.03 K, 16006 kPa, x1 = 0.0607
  mass density: 1012.3 ± 0.4 kg/m3
333.03 K, 16996 kPa, x1 = 0.0607
  mass density: 1012.7 ± 0.4 kg/m3
333.03 K, 17011 kPa, x1 = 0.1302
  mass density: 1025.7 ± 0.5 kg/m3
333.03 K, 17985 kPa, x1 = 0.1302
  mass density: 1026.1 ± 0.5 kg/m3
333.03 K, 18013 kPa, x1 = 0.0607
  mass density: 1013.1 ± 0.4 kg/m3
333.03 K, 18991 kPa, x1 = 0.1302
  mass density: 1026.4 ± 0.5 kg/m3
333.03 K, 19018 kPa, x1 = 0.0607
  mass density: 1013.4 ± 0.4 kg/m3
333.03 K, 19965 kPa, x1 = 0.0607
  mass density: 1013.8 ± 0.4 kg/m3
333.03 K, 19993 kPa, x1 = 0.1302
  mass density: 1026.8 ± 0.5 kg/m3
333.04 K, 1012 kPa, x1 = 0.0369
  mass density: 995.9 ± 0.4 kg/m3
333.04 K, 1999 kPa, x1 = 0.0369
  mass density: 996.3 ± 0.4 kg/m3
333.04 K, 2995 kPa, x1 = 0.0369
  mass density: 996.7 ± 0.4 kg/m3
333.04 K, 4008 kPa, x1 = 0.0369
  mass density: 997.2 ± 0.4 kg/m3
333.04 K, 4992 kPa, x1 = 0.0369
  mass density: 997.6 ± 0.4 kg/m3
333.04 K, 5983 kPa, x1 = 0.0369
  mass density: 998 ± 0.4 kg/m3
333.04 K, 6994 kPa, x1 = 0.0369
  mass density: 998.4 ± 0.4 kg/m3
333.04 K, 7997 kPa, x1 = 0.0369
  mass density: 998.8 ± 0.4 kg/m3
333.04 K, 8994 kPa, x1 = 0.0369
  mass density: 999.2 ± 0.4 kg/m3
333.04 K, 9994 kPa, x1 = 0.0369
  mass density: 999.6 ± 0.4 kg/m3
